What was measured:
[1] = pKa of the lipid by TNS fluorescence; type: physicochemical; settings: pKa
In short: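 Lipid dissolved in ethanol (2 mM stock) and measured with TNS across eight buffers of differing pH, in water at standard temperature and pressure. Normalized fluorescence intensity plotted against pH and points joined by a smooth line to derive pKa, precise to about 0.2 units.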

Factor VII = Factor VII activity assay, in vivo liver delivery of FVII siRNA LNP; set-up: species or system mouse; settings: dose 1 mg/kg siRNA i.v., ~48 h; lipid/no neutral lipid/CHOL/GM-020 NOF 60/0/36/4, N/P 3
In short: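 Female CD-1 mice (~25 g) given a single i.v. tail-vein dose of FVII siRNA in LNPs (cationic, stealth, neutral lipids), dosed as mg siRNA/kg. Plasma collected ~48 h post-injection; FVII activity read against a standard curve from pooled vehicle-control plasma.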

[2] = test system: PLK-1 mRNA in Hep3B tumors; test: Hep3B tumor study, PLK-1 mRNA KD in tumor tissue; type: in vivo, human; settings: for PLK1 inhibition %: Hep3B tumor, mouse, i.v., LNP composition as in the source; for % KD: Table 9 experiment
Description: (§1) Formulated siRNAs are made up of double stranded siRNA sequences specific to a target mRNA sequence, and are in the form of lipid nucleotid particles (LNPs) containing cationic lipids, stealth lipids and neutral lipids, as provided in the Examples below. The siRNA construct for use in targeting the liver is specific to Factor VII. The siRNA construct for use in targeting tumors is specific to PLK1-424, which is published by Judge et al., See, J Clin Invest. 2009 March; 119(3):661-73; doi: 10.1172/JCI37515). • 1. FVII siRNA duplex sequence
Hep3B tumors are established in female nude mice by sc injection of 7×10^6 cells in 100 ul PBS into the left flank. Mice are randomized into treatment groups 10-14 days after seeding as tumors reached an average size of 100 mm^3. siRNA formulated LNP formulations are administered at various dose levels intravenously via the lateral tail vein calculated on a mg siRNAs/kg basis according to individual animal weights (10 ml/kg injection volume). Mice are euthanized by CO2 inhalation at various time points and the tumors are harvested for mRNA quantitation. Lipids with a wide range of pKa (5.3-6.6) are used in the LNP formulations. Tumors are measured in 2 dimensions (width×length) to assess tumor growth using digital calipers. Tumor volume is calculated using the equation [a×b×b/2], where a equals the largest diameter and b equals the smallest diameter.
(§2) About 30-50 mg tumor tissue is homogenized in tissue lysis buffer in a Qiagen homogenizer followed by centrifugation to clarify lysates. Total RNA is isolated using RNeasy isolation kit (catalog number 74106) according to the manufacture's protocol. PLK-1 mRNA is analyzed by quantitative PCR and normalized to human GAPDH. Applied Biosystems human PLK-1 gene expression assay Hs00983229_m1 and human GAPDH endogenous control cat number 4326317E are used for mRNA detection.
(§3) The pKa in all tables refers to the pKa of the cationic lipid. Where multiple doses are indicated (e.g., 3×5), the first number indicates the number of doses given and the second number indicates the amount per dose in mg siRNA (biologically active agent) per kg mouse. In general the multiple doses are administered at 24 hour intervals, and tissues for mRNA quantitation are harvested 24 hours after the last dose.

[3] = Particle size and PDI by dynamic light scattering (Malvern Zetasizer); type: physicochemical; set-up: Final size: unit not given here; settings: for Final size: LNP formulation, Table 10
In short: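 Nanoparticles diluted in PBS to a count rate of about 200-400 kcts and measured by dynamic light scattering; size given as intensity-weighted average diameter, with polydispersity index from the same measurement.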

[4] = test system: PLK-1 mRNA in HepG2 tumors; test: HepG2 tumor study, PLK-1 mRNA KD in tumor tissue; type: in vivo, human; settings: Mus musculus, HepG2, iv, 24 h, HepG2 tumor in nude mice, 3 × 3 mg/kg siRNA iv, tumors harvested 24 hrs after the last dose; read-out: PLK1 % inhibition
Description: as §1
HepG2 tumors are established in female nude mice by sc injection of 5×10^6 cells in 100 ul PBS into the left flank. Mice are randomized into treatment groups 10-14 days after seeding as tumors reached an average size of 150 mm^3. siRNA formulated LNP formulations are administered at 3×3 mg/kg dose levels intravenously via the lateral tail vein calculated on a mg siRNAs/kg basis according to individual animal weights (10 ml/kg injection volume). Mice are euthanized by CO2 inhalation at various time points and the tumors are harvested 24 hrs after the last dose for mRNA quantitation. Lipids with a wide range of pKa (5.3-6.6) are used in the LNP formulations. Tumors are measured in 2 dimensions (width×length) to assess tumor growth using digital calipers. Tumor volume is calculated using the equation [a×b×b/2], where a=largest diameter and b=smallest diameter.
as §2, §3

[5] = LNP formulation with PLK1 siRNA, helper, neutral and stealth lipid, molar ratio and N/P as in the table
[6] = lipid/no neutral lipid/CHOL/GM-020 NOF 60/0/36/4, N/P 3
[7] = LNP formulation with PLK1 siRNA, helper, neutral and stealth lipid, molar ratio and N/P as in the table, stealth lipid S004, molar ratio 50/43/5/2, N/P 4

SMILES | pKa [1] | FVII inhib % (Factor VII) [%] | PLK1 inhibition % ([2]; 1 × 1 mg siRNA/kg) [%] | Final size (nm) [3, 5] [nm] | Final size (nm) [3, 6] [nm] | PDI [3, 6] | inhibition at 3 mg/kg [4] [%] | Final size [3] | other results
CCCCCCCC/C=C\CCCCCCCCOCC(CN1CCCCC1)OCCO[C@H]1CC[C@@]2(C)C(=CC[C@H]3[C@@H]4CC[C@H]([C@H](C)CCCC(C)C)[C@@]4(C)CC[C@@H]32)C1 (some centres unmarked) [E0061] | 6.28 | 52.6 | 23 | 90.09 | 139.4 | 0.073 | – | – | –
CCCCC/C=C\C/C=C\CCCCCCCCOCC(CN1CCCCC1)OCCCOCCCO[C@H]1CC[C@@]2(C)C(=CC[C@H]3[C@@H]4CC[C@H]([C@H](C)CCCC(C)C)[C@@]4(C)CC[C@@H]32)C1 (some centres unmarked) [E0077] | 5.79 | 26.8 | – | 120.8 | 109.8 | 0.127 | – | – | PLK1 inhibition % ([2]; 1 × 5 mg siRNA/kg): 77%
CCCCCCCC/C=C\CCCCCCCCOCC(CN1CCOCC1)OCCOCCO[C@H]1CC[C@@]2(C)C(=CC[C@H]3[C@@H]4CC[C@H]([C@H](C)CCCC(C)C)[C@@]4(C)CC[C@@H]32)C1 (some centres unmarked) [E0085] | 5.32 | – | – | – | – | – | 40 | 76.8 | PLK1 inhibition % ([2]; 1 × 0.1 mg siRNA/kg): 53%; PLK1 inhibition % ([2]; 1 × 2 mg siRNA/kg): 62%; PLK1 inhibition % ([2]; 1 × 5 mg siRNA/kg): 69%; PLK1 inhibition % ([2]; 1 × 10 mg siRNA/kg): 55%; Final size (nm) ([3]; LNP formulation with PLK1 siRNA, helper, neutral and stealth lipid, molar ratio and N/P as in the table, stealth lipid S004, molar ratio 45/43/10/2, N/P 4): 76.8 nm; Final size (nm) ([3]; LNP formulation with PLK1 siRNA, helper, neutral and stealth lipid, molar ratio and N/P as in the table, stealth lipid S004, molar ratio 50/38/10/2, N/P 4): 88.33 nm; Final size (nm) [3, 7]: 87.74 nm; Final size (nm) ([3]; LNP formulation with PLK1 siRNA, helper, neutral and stealth lipid, molar ratio and N/P as in the table, stealth lipid S004, molar ratio 50/48/0/2, N/P 4): 96.42 nm; Final size (nm) ([3]; LNP formulation with PLK1 siRNA, helper, neutral and stealth lipid, molar ratio and N/P as in the table, stealth lipid S004, molar ratio 60/38/2, N/P 4): 90.06 nm; Final size (nm) ([3]; LNP formulation with PLK1 siRNA, helper, neutral and stealth lipid, molar ratio and N/P as in the table, stealth lipid S011, molar ratio 40/48/10/2, N/P 4): 81.83 nm
CCCCC/C=C\C/C=C\CCCCCCCCOCC(CN1CCC(OC)C1)OCCCOCCCO[C@H]1CC[C@@]2(C)C(=CC[C@H]3[C@@H]4CC[C@H]([C@H](C)CCCC(C)C)[C@@]4(C)CC[C@@H]32)C1 (some centres unmarked) [E0088] | 5.79 | 50.8 | – | 146.2 | 110.7 | 0.080 | – | – | PLK1 inhibition % ([2]; 1 × 5 mg siRNA/kg): 71%
CCCCC/C=C\C/C=C\CCCCCCCCCCOCC(CN1CCCC1C)OCCCOCCCO[C@H]1CC[C@@]2(C)C(=CC[C@H]3[C@@H]4CC[C@H]([C@H](C)CCCC(C)C)[C@@]4(C)CC[C@@H]32)C1 (some centres unmarked) [E0095] | 5.84 | 13 | – | 96.09 | 125.1 | 0.091 | – | – | PLK1 inhibition % ([2]; 1 × 0.1 mg siRNA/kg): 23%
CCCCC/C=C\C/C=C\CCCCCCCCCCOCC(CN1CCCCC1)OCCCOCCCO[C@H]1CC[C@@]2(C)C(=CC[C@H]3[C@@H]4CC[C@H]([C@H](C)CCCC(C)C)[C@@]4(C)CC[C@@H]32)C1 (some centres unmarked) [E0096] | 5.77 | 14.4 | – | – | 128.8 | 0.162 | 17 | 94.91 | –
CCCCCCCC/C=C\CCCCCCCCOCC(CN1CCCC(C)C1)OCCOCCO[C@H]1CC[C@@]2(C)C(=CC[C@H]3[C@@H]4CC[C@H]([C@H](C)CCCC(C)C)[C@@]4(C)CC[C@@H]32)C1 (some centres unmarked) [E0119] | 5.82 | – | 40 | 99.37 | – | – | 22 | 99.37 | –
CCCCC/C=C\C/C=C\CCCCCCCCOC[C@@H](CN1CCC[C@@H]1C)OCCCOC(=O)CCC(=O)O[C@H]1CC[C@@]2(C)C(=CCC3C2CC[C@@]2(C)C3CC[C@@H]2[C@H](C)CCCC(C)C)C1 (some centres unmarked) [E0161] | 6.3 | – | 45 | 101.4 | – | – | 0 | 101.4 | –
CCCCC/C=C\C/C=C\CCCCCCCCOC[C@@H](CN1CCC[C@H]1C)OCCCOC(=O)CCC(=O)O[C@H]1CC[C@@]2(C)C(=CCC3C2CC[C@@]2(C)C3CC[C@@H]2[C@H](C)CCCC(C)C)C1 (some centres unmarked) [E0162] | 6.07 | – | – | – | – | – | 0 | 114.4 | –
CCCCCCCC/C=C\CCCCCCCCOCC(CN1CCOCC1)OCCOCCNC(=O)O[C@H]1CC[C@@]2(C)C(=CC[C@H]3[C@@H]4CC[C@H]([C@H](C)CCCC(C)C)[C@@]4(C)CC[C@@H]32)C1 (some centres unmarked) [E0175] | 5.67 | – | – | – | – | – | 49 | – | Final size ([3]; molar ratio 50/43/5/2, N/P 3.8): 93.51; Final size ([3]; molar ratio 60/38/2, N/P 4): 78.74
CCCCC/C=C\C/C=C\CCCCCCCCOCC(CN1CCOCC1)OCCOCCNC(=O)O[C@H]1CC[C@@]2(C)C(=CC[C@H]3[C@@H]4CC[C@H]([C@H](C)CCCC(C)C)[C@@]4(C)CC[C@@H]32)C1 (some centres unmarked) [E0176] | 5.56 | – | 36 | 99.14 | – | – | 37 | 99.14 | –
CCCCCCCC/C=C\CCCCCCCCOCC(CN1CCCCC1)OCCCOC(=O)CCC(=O)O[C@H]1CC[C@@]2(C)C(=CC[C@H]3[C@@H]4CC[C@H]([C@H](C)CCCC(C)C)[C@@]4(C)CC[C@@H]32)C1 (some centres unmarked) [E0178] | 5.92 | – | – | – | – | – | 0 | 94.67 | PLK1 inhibition % ([2]; 1 × 0.1 mg siRNA/kg): 0%; % KD ([2]; 0.1 mg/kg): 0%; % KD ([2]; 1.0 mg/kg): 35%; Final size (nm) [3, 7]: 94.67 nm; Final size (nm) ([3]; LNP formulation with PLK1 siRNA, helper, neutral and stealth lipid, molar ratio and N/P as in the table, stealth lipid S004, molar ratio 50/48/2, N/P 4): 88.39 nm
CCCCCCCC/C=C\CCCCCCCCOCC(CCN1CCOCC1)OCCOCCO[C@H]1CC[C@@]2(C)C(=CCC3C2CC[C@@]2(C)C3CC[C@@H]2[C@H](C)CCCC(C)C)C1 (some centres unmarked) [E0180] | – | – | 16 | 77.35 | – | – | 0 | 77.35 | –
